Where “and” joins values, the source holds several entries; their conditions need not be identical. Equal values may be shown once. Toxic doses and inconclusive results are not listed.

The assay deals with CD2F1 mice, L1210 leukemia ip, survival T/C. Description: NCI In Vivo Anticancer Drug Screen. Data for tumor model L1210 Leukemia (intraperitoneal) in CD2F1 (CDF1) mice. Particulars: higher = longer survival. Summed up:
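Each value reflects a quotient of treated over vehicle control outcomes in mice with a transplanted tumor.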

Where [1] appears, read: endpoint: mean survival time, dose: 100.0 mg/kg/injection, schedule: Q04DX002 (ip), vehicle: saline with Tween-80.
Setting [2] is: endpoint: mean survival time, dose: 200.0 mg/kg/injection, schedule: Q04DX002 (ip), vehicle: saline with Tween-80.
Setting [3] is: endpoint: mean survival time, dose: 400.0 mg/kg/injection, schedule: Q04DX002 (ip), vehicle: saline with Tween-80.
[4] abbreviates: endpoint: mean survival time, dose: 100.0 mg/kg/injection, schedule: Q01DX009 (ip), vehicle: saline with Tween-80.
Setting [5] is: endpoint: mean survival time, dose: 100.0 mg/kg/injection, schedule: Q04DX003 (ip), vehicle: saline with Tween-80.
Setting [6] is: endpoint: mean survival time, dose: 200.0 mg/kg/injection, schedule: Q04DX003 (ip), vehicle: saline with Tween-80.
The mark [7] stands for this setting: endpoint: mean survival time, dose: 400.0 mg/kg/injection, schedule: Q04DX003 (ip), vehicle: saline with Tween-80.
The mark [8] stands for this setting: endpoint: mean survival time, dose: 75.0 mg/kg/injection, schedule: Q01DX001 (ip), vehicle: saline.
[9] abbreviates: endpoint: mean survival time, dose: 25.0 mg/kg/injection, schedule: Q01DX009 (ip), vehicle: saline.
[10] abbreviates: endpoint: mean survival time, dose: 50.0 mg/kg/injection, schedule: Q01DX009 (ip), vehicle: saline.
The mark [11] stands for this setting: endpoint: mean survival time, dose: 100.0 mg/kg/injection, schedule: Q01DX009 (ip), vehicle: saline.
[12] abbreviates: endpoint: mean survival time, dose: 200.0 mg/kg/injection, schedule: Q01DX009 (ip), vehicle: saline.
The mark [13] stands for this setting: endpoint: mean survival time, dose: 400.0 mg/kg/injection, schedule: Q01DX009 (ip), vehicle: saline.
[14] abbreviates: endpoint: mean survival time, dose: 25.0 mg/kg/injection, schedule: Q01DX009 (ip), vehicle: saline with Tween-80.

For the compound `CCc1ccc(NC(=O)/C=C/c2ccccc2)cc1`, the T/C under setting [1] was 93 % of control, the T/C under setting [2] is 89 % of control and the T/C under setting [3] is 104 % of control.

As to `COc1ccc2c(O)c(C)c(=O)n(C)c2c1`, the T/C runs as follows: under setting [1], 96 % of control; under setting [2], 96 % of control; under setting [3], 93 % of control.

Turning to `Nc1ccc(C(=O)O)cc1S(=O)(=O)O`, the T/C was 96 % of control (endpoint: mean survival time, dose: 25.0 mg/kg/injection, schedule: Q01DX001 (ip), vehicle: Klucel (hydroxypropylcellulose) (HPC)); 100 % of control (endpoint: mean survival time, dose: 50.0 mg/kg/injection, schedule: Q01DX001 (ip), vehicle: Klucel (hydroxypropylcellulose) (HPC)); 107 % of control (endpoint: mean survival time, dose: 100.0 mg/kg/injection, schedule: Q01DX001 (ip), vehicle: Klucel (hydroxypropylcellulose) (HPC)).

In the case of `O=C(NC(CCO)C(=O)O)OCc1ccccc1` (stereo not given), the T/C by setting is: (endpoint: mean survival time, dose: 75.0 mg/kg/injection, schedule: Q04DX003 (ip), vehicle: saline) 95 % of control; (endpoint: mean survival time, dose: 150.0 mg/kg/injection, schedule: Q04DX003 (ip), vehicle: saline) 98 % of control; (endpoint: mean survival time, dose: 300.0 mg/kg/injection, schedule: Q04DX003 (ip), vehicle: saline) 101 % of control.

Turning to `Cc1cc(C)c(C(=O)c2ccccc2-c2ccccc2C(=O)c2c(C)cc(C)cc2C)c(C)c1`, the T/C was 86 % of control under setting [4]; 96 % of control under setting [5]; 89 % of control (endpoint: mean survival time, dose: 200.0 mg/kg/injection, schedule: Q01DX009 (ip), vehicle: saline with Tween-80); 100 % of control under setting [6]; 91 % of control (endpoint: mean survival time, dose: 400.0 mg/kg/injection, schedule: Q01DX009 (ip), vehicle: saline with Tween-80); 96 % of control under setting [7].

For the compound `COc1cc(Cl)c(CC(=O)Cl)cc1OC`, the T/C reads like this: under setting [8], 105 % of control; (endpoint: mean survival time, dose: 150.0 mg/kg/injection, schedule: Q01DX001 (ip), vehicle: saline) 106 % of control; (endpoint: mean survival time, dose: 300.0 mg/kg/injection, schedule: Q01DX001 (ip), vehicle: saline) 95 % of control.

`COc1ccc(NC(=S)N(C)C)cc1`: the T/C is, setting by setting: under setting [5], 94 % of control; under setting [6], 90 % of control; under setting [7], 92 % of control.

Take `CCN1CCCC(Nc2nc(Nc3ccc(Cl)c(Cl)c3)nc3ccc(Cl)cc23)C1` (stereo not given): the T/C was 89 % of control under setting [5] and 94 % of control under setting [6].

Regarding `ClCCN(CCCl)c1ccc(CNCCCNCc2ccc(N(CCCl)CCCl)cc2)cc1`, the T/C is 118 % of control (endpoint: mean survival time, dose: 1.25 mg/kg/injection, schedule: Q01DX009 (ip), vehicle: saline sonified); 118 % of control (endpoint: mean survival time, dose: 2.5 mg/kg/injection, schedule: Q01DX009 (ip), vehicle: saline sonified); 117 % of control (endpoint: mean survival time, dose: 3.3 mg/kg/injection, schedule: Q01DX009 (ip), vehicle: saline sonified); 117 % of control (endpoint: mean survival time, dose: 5.0 mg/kg/injection, schedule: Q01DX009 (ip), vehicle: saline sonified); 121 % of control (endpoint: mean survival time, dose: 7.5 mg/kg/injection, schedule: Q01DX009 (ip), vehicle: saline sonified); 120 % of control (endpoint: mean survival time, dose: 10.0 mg/kg/injection, schedule: Q04DX003 (ip), vehicle: saline with Tween-80). The T/C runs as follows: (endpoint: mean survival time, dose: 20.0 mg/kg/injection, schedule: Q04DX003 (ip), vehicle: saline with Tween-80) 121 % of control; (endpoint: mean survival time, dose: 40.0 mg/kg/injection, schedule: Q04DX003 (ip), vehicle: saline with Tween-80) 120 % of control.

In the case of `N=c1nc2n(cc1F)[C@@H]1O[C@H](CO)[C@@H](O)[C@@H]1O2`, the T/C reads like this: (endpoint: mean survival time, dose: 17.0 mg/kg/injection, schedule: Q04DX003 (ip), vehicle: saline) 119 % of control; under setting [9], 155 % of control; under setting [10], 162 % of control and 188 % of control; (endpoint: mean survival time, dose: 68.0 mg/kg/injection, schedule: Q04DX003 (ip), vehicle: saline) 150 % of control; (endpoint: mean survival time, dose: 100.0 mg/kg/injection, schedule: Q01DX001 (ip), vehicle: saline) 110 % of control; under setting [11], 193 % of control and 250 % of control. The T/C was 117 % of control (endpoint: mean survival time, dose: 200.0 mg/kg/injection, schedule: Q01DX001 (ip), vehicle: saline); 224 % of control and 303 % of control under setting [12]; 120 % of control (endpoint: mean survival time, dose: 400.0 mg/kg/injection, schedule: Q01DX001 (ip), vehicle: saline); 305 % of control and 331 % of control under setting [13]; 239 % of control (endpoint: mean survival time, dose: 800.0 mg/kg/injection, schedule: Q01DX009 (ip), vehicle: saline); 124 % of control (endpoint: median survival time, dose: 16.0 mg/kg/injection, schedule: Q01DX005 (ip), vehicle: saline). The T/C was 216 % of control (endpoint: median survival time, dose: 256.0 mg/kg/injection, schedule: Q01DX005 (ip), vehicle: saline) and 349 % of control (endpoint: median survival time, dose: 512.0 mg/kg/injection, schedule: Q01DX005 (ip), vehicle: saline).

For the compound `CN1CCC(O)(C#N)CC1`, the T/C was 102 % of control (endpoint: mean survival time, dose: 3.75 mg/kg/injection, schedule: Q04DX003 (ip), vehicle: saline); 102 % of control (endpoint: mean survival time, dose: 7.5 mg/kg/injection, schedule: Q04DX003 (ip), vehicle: saline); 100 % of control (endpoint: mean survival time, dose: 15.0 mg/kg/injection, schedule: Q04DX003 (ip), vehicle: saline).

Consider `CC(=O)NC1=C(Sc2ccc([N+](=O)[O-])cc2)C(=O)c2ccccc2C1=O`, for which the T/C under setting [8] is 98 % of control.

Consider `CONc1ccn(C2OC(CO)C(O)C2O)c(=O)n1` (stereo not given), for which the T/C is, setting by setting: (endpoint: mean survival time, dose: 12.5 mg/kg/injection, schedule: Q01DX009 (ip), vehicle: saline) 108 % of control; under setting [9], 108 % of control; under setting [10], 117 % of control; under setting [11], 121 % of control; under setting [12], 120 % of control; under setting [13], 97 % of control. The T/C runs as follows: (endpoint: median survival time, dose: 12.5 mg/kg/injection, schedule: Q01DX009 (ip), vehicle: saline) 101 % of control; (endpoint: median survival time, dose: 25.0 mg/kg/injection, schedule: Q01DX009 (ip), vehicle: saline) 108 % of control; (endpoint: median survival time, dose: 50.0 mg/kg/injection, schedule: Q01DX009 (ip), vehicle: saline) 108 % of control; (endpoint: median survival time, dose: 100.0 mg/kg/injection, schedule: Q01DX009 (ip), vehicle: saline) 111 % of control; (endpoint: median survival time, dose: 200.0 mg/kg/injection, schedule: Q01DX009 (ip), vehicle: saline) 112 % of control; (endpoint: median survival time, dose: 400.0 mg/kg/injection, schedule: Q01DX009 (ip), vehicle: saline) 120 % of control.

Take `CN(C)C(C)(C)P(=O)(O)O`: the T/C runs as follows: (endpoint: mean survival time, dose: 100.0 mg/kg/injection, schedule: Q04DX003 (ip), vehicle: saline) 98 % of control; (endpoint: mean survival time, dose: 200.0 mg/kg/injection, schedule: Q04DX003 (ip), vehicle: saline) 96 % of control; (endpoint: mean survival time, dose: 400.0 mg/kg/injection, schedule: Q04DX003 (ip), vehicle: saline) 96 % of control.

With `CCOC(=O)C(F)(F)F`, the T/C is, setting by setting: under setting [11], 95 % of control; under setting [12], 103 % of control; under setting [13], 95 % of control.

`COc1cc2c(cc1OC)C(OC)N(C)c1c-2ccc2cc3c(cc12)OCO3` (stereo not given): the T/C (endpoint: mean survival time, dose: 3.13 mg/kg/injection, schedule: Q01DX009 (ip), vehicle: water) is 117 % of control; the T/C (endpoint: mean survival time, dose: 6.25 mg/kg/injection, schedule: Q01DX009 (ip), vehicle: water) was 121 % of control; the T/C (endpoint: mean survival time, dose: 12.5 mg/kg/injection, schedule: Q01DX009 (ip), vehicle: water) was 123 % of control; the T/C (endpoint: mean survival time, dose: 25.0 mg/kg/injection, schedule: Q01DX009 (ip), vehicle: water) is 121 % of control.

For `O=[Se](O)O.[NH-]C1CCCCC1[NH-].[Pt+2]` (stereo not given), the T/C (endpoint: mean survival time, dose: 1.0 mg/kg/injection, schedule: Q04DX003 (ip), vehicle: dextrose) is 124 % of control.

Take `CN=Cc1ccc(OC)cc1`: the T/C under setting [14] is 116 % of control; the T/C (endpoint: mean survival time, dose: 50.0 mg/kg/injection, schedule: Q01DX009 (ip), vehicle: saline with Tween-80) was 96 % of control; the T/C under setting [4] is 102 % of control; the T/C under setting [5] is 94 % of control.

For `C=C[CH2][Sn]([CH2]C=C)([CH2]CCC)[CH2]CCC`, the T/C reads like this: (endpoint: mean survival time, dose: 6.25 mg/kg/injection, schedule: Q01DX009 (ip), vehicle: saline with Tween-80) 95 % of control; (endpoint: mean survival time, dose: 12.5 mg/kg/injection, schedule: Q01DX009 (ip), vehicle: saline with Tween-80) 100 % of control; under setting [14], 94 % of control.

For the compound `CCCCOP(=O)(OCCCC)Oc1cccc2ccccc12`, the T/C by setting is: under setting [1], 91 % of control; under setting [2], 95 % of control; under setting [3], 106 % of control.
